The record followed here is patent publication US20060211624A1, “Methods and compositions for the treatment of parkinson's disease and other alpha-synucleinopathies” (Goverment of the US, as Represented by, priority 2003, published 2006).

The target of test [1] is T1, tTGase (Homo sapiens, UniProt P21980).
T1 construct: expressed in transfected cells; host or cells: COS-7 (A2); HEK293T (A3); pSG5 expression vector
T1 sequence (P21980 1-687): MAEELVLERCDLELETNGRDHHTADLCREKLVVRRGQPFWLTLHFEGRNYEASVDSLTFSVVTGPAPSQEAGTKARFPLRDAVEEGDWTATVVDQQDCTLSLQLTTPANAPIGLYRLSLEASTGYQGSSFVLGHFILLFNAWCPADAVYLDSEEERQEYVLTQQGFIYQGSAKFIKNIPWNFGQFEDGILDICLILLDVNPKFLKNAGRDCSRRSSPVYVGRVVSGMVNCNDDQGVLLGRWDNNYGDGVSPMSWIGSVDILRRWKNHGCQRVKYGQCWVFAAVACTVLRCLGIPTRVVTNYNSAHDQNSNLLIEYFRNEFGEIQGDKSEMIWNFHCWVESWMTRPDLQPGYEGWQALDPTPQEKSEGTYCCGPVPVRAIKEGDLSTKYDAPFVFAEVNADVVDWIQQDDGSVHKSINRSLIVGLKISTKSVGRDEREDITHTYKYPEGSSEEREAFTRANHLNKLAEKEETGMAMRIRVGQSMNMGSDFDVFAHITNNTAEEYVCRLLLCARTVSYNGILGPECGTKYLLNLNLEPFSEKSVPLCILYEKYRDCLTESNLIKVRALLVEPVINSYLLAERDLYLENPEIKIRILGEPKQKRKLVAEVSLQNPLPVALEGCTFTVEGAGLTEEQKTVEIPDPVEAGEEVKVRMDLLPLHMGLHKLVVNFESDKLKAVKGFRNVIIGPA
In words: tTGase-induced α-synuclein aggregates by immunocytochemistry in transfected HEK293T cells. In kind it is cell-based. The note with it: 48 hours. The protocol: FIG. 1 depicts α-Synuclein the detection of aggregates by immunocytochemistry. HEK293T cells transiently transfected with α-synuclein in the absence or presence of tTGase were treated with CTM (100 μM, 200 μM) or A23187 (0.1 μg/ml) for 48 hours and stained for α-synuclein and tTGase. Aggregate-containing cells among transfected cells were counted in 10 randomly selected fields. Each microscopic field had 10-20 transfected cells. The data represent means±SEM. Significance levels determined by factorial ANOVA and the Bonferroni post hoc test are shown. *, P<0.002; * *, P<0.06; * * *, P<0.02.
(§1) COS-7 and human embryonic kidney (HEK) 293T cell lines were maintained in DMEM containing 10% FBS. Transfections were performed by using FuGene 6 reagent (Roche Molecular Biochemicals, Indianapolis, Ind.) for a 6 hour incubation period, and then treatments were initiated.
HEK 293T cells transiently transfected as described in the Examples below were cultured in the presence or absence of indicated chemicals in collagen-coated Biocoat slides (Becton Dickinson, Bedford, Mass.) for 48 hours. […] Cells were washed five times with PBS and analyzed under a fluorescence microscope (Axiophot, Zeiss, Thornwood, N.Y.). For quantification of inclusions, 10 microscopic fields were randomly selected, and the percentage of inclusion-positive cells was counted among transfected cells. […]

In test [2] the target is T1, tTGase. As to the kind of experiment: tTGase-induced α-synuclein aggregation in transfected COS-7 cells (detergent-insoluble fraction, Western blot). In kind it is cell-based. The protocol: Suitable tTGase inhibitor compounds for use in the treatment methods and compositions of the invention can be also be assessed by a protocol referred to herein as ‘a standard in vivo tTGase inhibition assay’, set forth as follows: Cells (e.g., neurons, COS-7 cells, or HEK […] cells) are co-transfected with an α-synuclein and tTGase expression plasmids (1 μg each) using FuGene 6 reagent (Roche Molecular Biochemicals, Indianapolis, Ind.) for 6 hours and cultured in DMEM containing 10% FBS for 48 hours. Cells are then lysed in a buffer containing PBS with 1% Triton X-100 and a mixture of protease inhibitors (Roche Molecular Biochemicals). Cells are homogenized with 20 strokes in a Dounce homogenizer, centrifuged at 20,000×g at 4° C. for 30 minutes. The detergent-insoluble fraction is used in Western blot analysis using an anti-α-synuclein antibody as described above for the standard in vitro assay. The cells in the assay can be cultured in the presence or absence of a candidate compound to determine whether the candidate compound can inhibit the production of the high-molecular weight aggregates. This defined standard in vivo tTGase inhibition assay is exemplified in Examples 1 and 2 (including the materials and methods section) which follows.
α-Synuclein cDNA was cloned by PCR from human fetal brain cDNA library (Stratagene, La Jolla, Calif.) (Bennett, M. C. et al. (1999) J. Biol. Chem. 274:33855-33858) and subcloned into pcDNA3.1 (Invitrogen, Carlsbad, Calif.), and pTYB11 (New England Biolabs, Beverly, Mass.). tTGase cDNA was amplified by PCR from human liver cDNA library by using primers 5′-aagaattc[…]-3′ (SEQ ID NO:1) and 5′-aagaattc[…]-3′ (SEQ ID NO:2). Lowercase letters indicate additional nucleotides designed to facilitate cloning. The PCR product was inserted into pSG5 expression vector (Stratagene), and its sequence matched perfectly with the known cDNA sequence of human tTGase (Gentile, V. et al. (1991) J. Biol. Chem. 266:478-483). […] Mouse monoclonal tTGase antibody (CUB 7402) was purchased from DAKO (Carpinteria, Calif.). The rabbit polyclonal tTGase antibody was described in Kim. S. Y. et al. (1999) J. Biol. Chem. 274:30715-30721. Guinea pig liver tTGase, cystamine (CTM), and A23187 were purchased from Sigma (St. Louis, Mo.). Rabbit polyclonal α-synuclein antibodies were obtained from Sigma and Chemicon (Temecula, Calif.). Monoclonal anti-α-synuclein antibodies, SYN-1 and LB509, were from Transduction Laboratories (Lexington, Ky.) and Zymed (South San Francisco, Calif.), respectively. Monoclonal antibody recognizing ε(γ-glutamyl) lysine isodipeptide bonds (81D1C2) was purchased from Covalab (Lyon, France). Recombinant human α-synuclein protein was expressed in pTYB11 and purified by the IMPACT T7 system (New England Biolabs) according to the supplier's instructions.
as §1
Cells were lysed in a buffer containing PBS with 1% Triton X-100 and a mixture of protease inhibitors (Roche Molecular Biochemicals). […] Immunoprecipitates were analyzed by Western blots with antiisodipeptide antibody (81D1C2) or anti-α-synuclein antibody SYN-1 with the ECL detection system (NEN, Boston, Mass.). […]
Background: A western blot detects proteins with antibodies after separation by electrophoresis.

In test [3] the target is T2, guinea pig liver tTGase (Cavia cutleri, UniProt P08587).
T2 construct: purified guinea pig liver tTGase (10 nM); purchased Sigma (St. Louis, Mo.); host or cells: guinea pig liver
T2 sequence (P08587 1-690): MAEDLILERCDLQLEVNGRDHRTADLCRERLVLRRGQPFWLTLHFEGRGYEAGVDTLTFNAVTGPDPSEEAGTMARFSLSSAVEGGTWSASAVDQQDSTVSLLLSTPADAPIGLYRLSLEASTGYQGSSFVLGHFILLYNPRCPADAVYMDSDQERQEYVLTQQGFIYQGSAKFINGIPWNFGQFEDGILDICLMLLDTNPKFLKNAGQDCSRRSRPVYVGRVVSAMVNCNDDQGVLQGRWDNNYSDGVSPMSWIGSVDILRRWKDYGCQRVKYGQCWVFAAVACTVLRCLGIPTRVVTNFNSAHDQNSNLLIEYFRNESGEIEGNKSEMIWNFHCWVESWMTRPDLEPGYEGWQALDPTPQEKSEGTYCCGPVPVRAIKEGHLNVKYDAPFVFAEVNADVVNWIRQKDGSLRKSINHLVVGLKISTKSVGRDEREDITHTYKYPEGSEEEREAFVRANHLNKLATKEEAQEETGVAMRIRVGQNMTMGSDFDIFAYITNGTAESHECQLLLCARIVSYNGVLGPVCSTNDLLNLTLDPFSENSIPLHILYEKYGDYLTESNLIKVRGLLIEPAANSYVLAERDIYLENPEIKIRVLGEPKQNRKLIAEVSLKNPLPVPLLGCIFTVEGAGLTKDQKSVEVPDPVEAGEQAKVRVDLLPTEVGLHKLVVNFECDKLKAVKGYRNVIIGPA
As to the kind of experiment: In vitro cross-linking reaction of α-synuclein by tTGase (SDS/PAGE, Western blot). The test is classed as biochemical. The note with it: 37° C., 2 hours. The protocol: Suitable tTGase inhibitor compounds for use in the treatment methods and compositions of the invention can be assessed by straightforward protocols, such as the following. […] The reaction products are then analyzed by standard SDS/PAGE and Western blot using an anti-α-synuclein antibody (e.g., rabbit polyclonal antibodies, available from Sigma or Chemicon (Temecula, Calif.); or monoclonal antibodies such as SYN-1 or LB509, available from Signal Transduction Laboratories (Lexington, Ky.) and Zymed (South San Francisco, Calif.), respectively). […]
The reaction was performed at 37° C. for 2 hours in a buffer containing 50 mM Tris-HCl (pH 7.5), 2 mM leupeptin, and 1 mM purified α-synuclein. […] The reaction was stopped by the addition of 20 mM EDTA, and products were analyzed by SDS/PAGE followed by Western blot.
To study the in vitro cross-linking of α-synuclein, purified recombinant human α-synuclein protein was incubated with guinea pig liver tTGase for 2 hours at 37° C., and the reaction products were analyzed by SDS/PAGE, followed by Western blotting with anti-α-synuclein antibody. […]

[4] abbreviates: delayed treatment, 200 μM during the final 48 hours of 96 hours, COS-7.

For the compound `CNc1ccc2oc(C[C@H]3O[C@@]4(CC[C@H]3C)O[C@H]([C@H](C)C(=O)c3ccc[nH]3)[C@H](C)C[C@H]4C)nc2c1C(=O)O` [A23187], the “aggregate formation (aggregate-containing cells among transfected cells)” value in test [1] (HEK293T cells, 0.1 μg/ml) is “significantly increased”. Besides, the “high molecular weight bands of α-synuclein” value in test [2] (COS-7 cells transfected with only α-synuclein, 0.1 μg/ml) was “some high molecular weight bands”. Besides, in test [2] (α-synuclein- and tTGase-transfected COS-7 cells, 0.1 μg/ml), the “formation of α-synuclein aggregates” value was “significant increase”.

As for `NCCSSCCN` [CTM, cystamine], the “inclusion formation (aggregate-containing cells among transfected cells)” value in test [1] (HEK293T cells coexpressing α-synuclein and tTGase, 100 μM, 200 μM) is recorded as “decreased inclusion formation”. Also, in test [2] (setting [4]), the “further de novo aggregation occurring during the final 48 hours” value is given as “inhibited further de novo aggregation” and the “level of aggregates formed during the initial 48 hours (preformed aggregates)” value is recorded as “did not diminish”. Besides, the “formation of tTGase-induced α-synuclein aggregates” value in test [2] (α-synuclein- and tTGase-transfected COS-7 cells, 200 μM for 48 hours) is given as “dramatically inhibited”.

As for `[Ca+2].[Cl-].[Cl-]` [CaCl2], the “generation of high molecular weight aggregates of α-synuclein” value in test [3] (addition of CaCl2 (5 mM), tTGase 10 nM, DTT 0.1 mM) was “significantly enhanced”.

In the case of `O=C(O)CN(CCN(CC(=O)O)CC(=O)O)CC(=O)O` [EDTA], the “aggregate formation (α-synuclein)” value in test [3] (chelation with EDTA (0.1 mM, 5 mM)) is reported as “dose-dependently blocked”.
